According to US20230302022A1, “PREVENTING OR MITIGATING CHEMOTHERAPY INDUCED ALOPECIA USING VITAMIN D” (priority 2016, published 2023):
Where “and” joins values, the source holds several entries; their conditions need not be identical. Equal entries are not always repeated. Entries after “also recorded” stand apart in the source; their conditions may differ.

Tests used:
[1] = tested on: SkBr-3 (breast adenocarcinoma cancer, Her2 overexpressed); assay: Cell growth / viability assay, SkBr-3; type: cell-based
Method: The drug treatment period was usually three days. At the end of the three days, the background OD of the 96-well plate was read at 280 nm, before 20 μL of the “Substrate Cell Titer 96 Aqueous One Solution Reagent” (Promega) was added to each well. […] The net OD increase was calculated by subtracting the pre-substrate OD reading. The impact of the drug on the cells was calculated by comparing the OD at different concentrations in relation to the OD of the control wells (without the drug). The results of the Net OD as a function of drug concentration was plotted and used to determine ED50 values.

Sprague Dawley rats = assay: Cyclophosphamide-induced alopecia in neonatal Sprague Dawley rats, 1,25(OH)2D3 in ethanol; type: in vivo, rat; conditions: 0.2 μg 1,25(OH)2D3 in 150 μL ethanol daily day 5-10, all animals
Method: Neonatal Rat model and PCA model. Sprague Dawley rats were purchased from Charles River Laboratories (Wilmington, MA). C3H/HeJ mouse were purchased from Jackson Laboratories (Bar Harbour, ME). Rodents were housed and fed according to NIH guidelines. […] Uskokovic (Hoffman-La Roche, Nutley, NJ). For experiments involving C3H/HeJ mice, 1,25(OH)2D3 was purchased from Sigma (St. Louis, M0). Topical application of 1,25(OH)2D3. 1,25(OH)2D3 was dissolved in absolute ethanol and applied topically with an applicator. Control animals were similarly treated with vehicle only. Animals were then isolated for a period of 3 hours following which the treated area was washed with soap and water and dried. For CIA experiments, 1,25(OH)2D3 was given daily beginning on day 5 after birth and ending on day 10. […] For CIA and PCA, the experimental group was treated with 0.2 μg of 1,25(OH)2D3 in 150 μL of absolute ethanol applied topically over the head and neck. In both instances, the control group received ethanol vehicle only. […] Both chemotherapies were started at 11 days of age. Alopecia was recorded on the tenth day after the first dose of chemotherapy. […] Rats were randomized into two groups of ten rats each. One group received vehicle control, while the other received 0.2 μg 1,25(OH)2D3. […] Animals were observed until complete hair regrowth was obtained.

[2] = tested on: squamous cell carcinoma and human prostate cell carcinoma; conditions: 2.5 μg 3 doses daily for 3 days, followed by paclitaxel; cited from earlier work
HepG2 (liver cancer) = assay: Cell growth / viability assay, HepG2; type: cell-based
Method: The drug treatment period was usually three days. At the end of the three days, the background OD of the 96-well plate was read at 280 nm, before 20 μL of the “Substrate Cell Titer 96 Aqueous One Solution Reagent” (Promega) was added to each well. The plate was returned to the 37° C. incubator, and its OD at 490 nm was read each hour until an OD of approximately 1.5 was reached. The net OD increase was calculated by subtracting the pre-substrate OD reading.
The impact of the drug on the cells was calculated by comparing the OD at different concentrations in relation to the OD of the control wells (without the drug).
Then these pretreated cells were utilized to set up the cell based assay.

[3] = Phase I study: serum levels of calcitriol (PK); type: in vivo, human; parameters: unit not given here; conditions: individual patients
Method: Pharmacokinetics (all patients). For the purpose of pharmacokinetic studies (PKs), blood samples will be collected on Day 1 of topical treatment at the following time points: pre-dose, at 2 hours (+/−30 minutes), 4 hours (+/−30 minutes), and 8 hours (+/−1 hour post dose) after a single application on the morning of Day 1. The second application of drug product will be applied 10-14 hours after the initial application and after the 8 hour PK sample. Thereafter, topical application frequency will be twice daily, morning and night. Subsequently, a PK sample will be taken 12 hours (+/−2 hours) after the last dose of each 28 day treatment, before the first application of Day 1 of the next 28 day treatment cycle. This schedule will continue for three consecutive 28 day topical treatment cycles. (PKs will be drawn at weeks 1, 5, 9, and 13. In addition if patients are still on study, a PK will also be drawn at week 54.) Vital signs will be obtained approximately 5 minutes before each blood collection, and the actual collection times will be recorded.
At each collection, collect blood by venipuncture in a serum separator tube(s). Centrifuge at 1200 RCF for 10±5 minutes, and aliquot 1.5 mL of serum each into 2 labeled externally threaded cryogenic vials and immediately freeze. […] Serum samples will be transported with a sufficient amount of dry ice to keep the samples frozen until arrival.
Each patient underwent PK analysis, adverse event monitoring, patient self-assessment diaries (1-10 scale), and blinded photographic assessments. […] Toxicity was determined on a weekly basis during Cycle 1 (i.e., the first 28 days of topical agent application) and subsequently every four weeks. Patients were managed with adequate safety (adverse event) monitoring and pharmacokinetic (PK) analysis in order to determine levels of exposure.

C3H/HeJ mouse = assay: C3H/HeJ model of alopecia areata; type: in vivo; conditions: 0.2 μg for 15 days, observed 30 days
Excerpt: Neonatal Rat model and PCA model. Sprague Dawley rats were purchased from Charles River Laboratories (Wilmington, MA). C3H/HeJ mouse were purchased from Jackson Laboratories (Bar Harbour, ME). Rodents were housed and fed according to NIH guidelines. […] Uskokovic (Hoffman-La Roche, Nutley, NJ). For experiments involving C3H/HeJ mice, 1,25(OH)2D3 was purchased from Sigma (St. Louis, M0). C3H/HeJ Model of Abpecia Areata. Retired breeders (8 months of age) were observed daily for the development of AA lesions.

In the case of C=C1/C(=C\C=C2/CCC[C@]3(C)[C@@H]([C@H](C)CCCC(C)(C)O)CC[C@@H]23)C[C@@H](O)C[C@@H]1O [Calcitriol, (5Z,7E)-9,10-secocholesta-5,7.10(19Hriene-1 a,33.25-triol], the “effect of calcitriol on cell growth” value [1] is reported as “no significant growth promoting or growth inhibiting effects”, the “effect of calcitriol on the cytotoxic effect of Doxorubicin” value [1] is reported as “does not appreciably alter; also recorded: did not appear to appreciably alter” and the cyclophosphamide-induced alopecia (Sprague Dawley rats) is reported as “did not develop alopecia”. The tumor response [2] was “significant tumor regression”, the “effect of calcitriol on the cytotoxic effect of Doxorubicin” value (HepG2 (liver cancer); Hep-G2) was “did not appear to appreciably alter” and the “5-FU ED50 curve with vs without calcitriol” value (HepG2 (liver cancer); Hep-G2, 0.1 μg/mL calcitriol) was “not significantly different”. For the same compound, the “response to doxorubicin, cisplatin and erlotinib after calcitriol exposure” value (HepG2 (liver cancer); Hep-G2, 0.1 μg/mL calcitriol for two passages) was “did not alter”, the “Serum Levels of Calcitriol” value ([3]; 5 μg/mL, Week 1, Hour 0 (pre-dose)) was 43.8 and 47.9 and 55.3 and the “Serum Levels of Calcitriol” value ([3]; 5 μg/mL, Week 1, Hour 2) was 38.8 and 48.4 and 46.2. The “Serum Levels of Calcitriol” value ([3]; 5 μg/mL, Week 1, Hour 4) was 45 and 51 and 58.7, the “Serum Levels of Calcitriol” value ([3]; 5 μg/mL, Week 1, Hour 8) was 33.2 and 44.4 and 39.5 and the “Serum Levels of Calcitriol” value ([3]; 5 μg/mL, Week 5, Hour 0) was 57.5 and 49.6 and 61.8. For the same compound, the “Serum Levels of Calcitriol” value ([3]; 5 μg/mL, Week 9, Hour 0) was 63.2 and 46.5, the “Serum Levels of Calcitriol” value ([3]; 5 μg/mL, Week 13, Hour 0) was 56 and 54.6 and the “Serum Levels of Calcitriol” value ([3]; 10 μg/mL, Week 1, Hour 0 (pre-dose)) was 37.7 and 60 and 32. For the same compound, the “Serum Levels of Calcitriol” value ([3]; 10 μg/mL, Week 1, Hour 2) was 32.9 and 59 and 33, the “Serum Levels of Calcitriol” value ([3]; 10 μg/mL, Week 1, Hour 4) was 36.7 and 57 and 31 and the “Serum Levels of Calcitriol” value ([3]; 10 μg/mL, Week 1, Hour 8) was 50 and 28. For the same compound, the “Serum Levels of Calcitriol” value ([3]; 10 μg/mL, Week 5, Hour 0) was 83.2 and 32 and 44, the “Serum Levels of Calcitriol” value ([3]; 10 μg/mL, Week 9, Hour 0) was 41 and the “Serum Levels of Calcitriol” value ([3]; 10 μg/mL, Week 13, Hour 0) was 25.9. For the same compound, the “Serum Levels of Calcitriol” value ([3]; 20 μg/mL, Week 1, Hour 0 (pre-dose)) was 110 and 33.7 and 41 and 46.8 and 40, the “Serum Levels of Calcitriol” value ([3]; 20 μg/mL, Week 1, Hour 2) was 90 and 38 and 54.1 and 40 and the “Serum Levels of Calcitriol” value ([3]; 20 μg/mL, Week 1, Hour 4) was 85 and 22.4 and 39 and 50.1 and 41. The “Serum Levels of Calcitriol” value ([3]; 20 μg/mL, Week 1, Hour 8) was 65 and 26.4 and 38 and 53.7 and 39, the “Serum Levels of Calcitriol” value ([3]; 20 μg/mL, Week 5, Hour 0) was 27.3 and 98 and 56.4 and the “Serum Levels of Calcitriol” value ([3]; 20 μg/mL, Week 9, Hour 0) was 64.9 and 37.7. For the same compound, the “Serum Levels of Calcitriol” value ([3]; 40 μg/mL, Week 1, Hour 0 (pre-dose)) was 44.7, the “Serum Levels of Calcitriol” value ([3]; 40 μg/mL, Week 1, Hour 2) was 75.2 and 67.1 and the “Serum Levels of Calcitriol” value ([3]; 40 μg/mL, Week 1, Hour 4) was 56.1 and 68.4. The “Serum Levels of Calcitriol” value ([3]; 40 μg/mL, Week 1, Hour 8) was 30.1 and 66.9, the “Serum Levels of Calcitriol” value ([3]; 40 μg/mL, Week 9, Hour 0) was 37.3 and the “Serum Levels of Calcitriol” value ([3]; 40 μg/mL, Week 13, Hour 0) was 92 and 46.7. For the same compound, the “Serum Levels of Calcitriol” value ([3]; 60 μg/mL, Week 1, Hour 0 (pre-dose)) was 29.1 and 36.4, the “Serum Levels of Calcitriol” value ([3]; 60 μg/mL, Week 1, Hour 2) was 21.3 and 38.5 and 42 and the “Serum Levels of Calcitriol” value ([3]; 60 μg/mL, Week 1, Hour 4) was 24.7 and 41.2 and 42.9. The “Serum Levels of Calcitriol” value ([3]; 60 μg/mL, Week 1, Hour 8) was 23.3 and 39.4 and 41.5, the “Serum Levels of Calcitriol” value ([3]; 60 μg/mL, Week 5, Hour 0) was 65.4 and 81.6 and the “Serum Levels of Calcitriol” value ([3]; 60 μg/mL, Week 9, Hour 0) was 60.7 and 61.5. The “Serum Levels of Calcitriol” value ([3]; 60 μg/mL, Week 13, Hour 0) was 45, the “Serum Levels of Calcitriol” value ([3]; 80 μg/mL, Week 1, Hour 0 (pre-dose)) was 28.3 and 29.4 and 55.7 and the “Serum Levels of Calcitriol” value ([3]; 80 μg/mL, Week 1, Hour 2) was 31.8 and 35.6 and 64.8. The “Serum Levels of Calcitriol” value ([3]; 80 μg/mL, Week 1, Hour 4) was 29.6 and 42.1 and 61.4, the “Serum Levels of Calcitriol” value ([3]; 80 μg/mL, Week 1, Hour 8) was 36.6 and 58.9 and the “Serum Levels of Calcitriol” value ([3]; 80 μg/mL, Week 5, Hour 0) was 95.5. For the same compound, the “regrowth of hair in alopecic lesions” value (C3H/HeJ mouse) was “No regrowth of hair”.
